Results: ChEMBL document CHEMBL1201862, “PubChem BioAssay data set” (2004)
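Step 1: Grow cells in 96-well plates. Step 2: Expose to compound for 48 hours at 5 concentrations. Step 3: Interpolate endpoints linearly; if unreached, use highest concentration. At the GI50, growth is halved.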 The source made the active and inactive calls. No stated cut-off is given here; in the data, active = GI50 up to about 1.1 µM and inactive = higher.

What was measured:
Test in all cases: DTP human tumour cell line panel, 48 h
[1] = test system: KM12
[2] = test system: M14
[3] = test system: RPMI-8226
[4] = test system: NCI-H226
[5] = test system: SW-620
[6] = test system: MDA-N
[7] = test system: UO-31
[8] = test system: T47D
[9] = test system: OVCAR-5
[10] = test system: OVCAR-8
[11] = test system: SF-268
[12] = test system: MDA-MB-435
[13] = test system: 786-0
[14] = test system: MOLT-4
[15] = test system: MDA-MB-231
[16] = test system: U-251
[17] = test system: UACC-257
[18] = test system: OVCAR-4
[19] = test system: SNB-75
[20] = test system: HOP-62
[21] = test system: HCT-15
[22] = test system: UACC-62
[23] = test system: MCF7
[24] = test system: HL-60
[25] = test system: ACHN
[26] = test system: Hs-578T
[27] = test system: SF-539
[28] = test system: A498
[29] = test system: SK-MEL-2
[30] = test system: SF-295
[31] = test system: EKVX
[32] = test system: PC-3
[33] = test system: DU-145
[34] = test system: RXF 393
[35] = test system: IGROV-1
[36] = test system: BT-549
[37] = test system: SNB-19
[38] = test system: HCT-116
[39] = test system: SK-OV-3
[40] = test system: COLO 205
[41] = test system: SK-MEL-5
[42] = test system: SK-MEL-28
[43] = test system: K562
[44] = test system: CAKI-1
[45] = test system: TK-10
[46] = test system: HCC 2998
[47] = test system: A549
[48] = test system: SN12C
[49] = test system: NCI-H460
[50] = test system: Malme-3M
[51] = test system: OVCAR-3
[52] = test system: NCI-H522
[53] = test system: HT-29
[54] = test system: CCRF-CEM
[55] = test system: LOX IMVI
[56] = test system: SR
[57] = test system: NCI-H23
[58] = test system: HOP-92
[59] = test system: NCI/ADR-RES

CC(=O)OC[C@H]1CN(OC(C)=O)C[C@@H](n2cc(C)c(=O)[nH]c2=O)O1
GI50 [1]: > 100 µM (inactive)
GI50 [2]: > 100 µM (inactive)
GI50 [3]: > 100 µM (inactive)
GI50 [4]: > 100 µM (inactive)
GI50 [5]: > 100 µM (inactive)
GI50 [6]: > 100 µM (inactive)
GI50 [7]: > 100 µM (inactive)
GI50 [8]: > 100 µM (inactive)
GI50 [9]: > 100 µM (inactive)
GI50 [10]: > 100 µM (inactive)
GI50 [11]: > 100 µM (inactive)
GI50 [12]: > 100 µM (inactive)
GI50 [13]: > 100 µM (inactive)
GI50 [14]: > 100 µM (inactive)
GI50 [15]: > 100 µM (inactive)
GI50 [16]: > 100 µM (inactive)
GI50 [17]: > 100 µM (inactive)
GI50 [18]: > 100 µM (inactive)
GI50 [19]: 61.5 µM (inactive)
GI50 [20]: > 100 µM (inactive)
GI50 [21]: > 100 µM
GI50 [22]: > 100 µM (inactive)
GI50 [23]: > 100 µM (inactive)
GI50 [24]: > 100 µM (inactive)
GI50 [25]: > 100 µM (inactive)
GI50 [26]: > 100 µM (inactive)
GI50 [27]: > 100 µM (inactive)
GI50 [28]: > 100 µM (inactive)
GI50 [29]: > 100 µM (inactive)
GI50 [30]: > 100 µM (inactive)
GI50 [31]: > 100 µM (inactive)
GI50 [32]: > 100 µM (inactive)
GI50 [33]: > 100 µM (inactive)
GI50 [34]: > 100 µM (inactive)
GI50 [35]: > 100 µM (inactive)
GI50 [36]: > 100 µM (inactive)
GI50 [37]: > 100 µM (inactive)
GI50 [38]: > 100 µM (inactive)
GI50 [39]: > 100 µM (inactive)
GI50 [40]: > 100 µM (inactive)
GI50 [41]: > 100 µM (inactive)
GI50 [42]: > 100 µM (inactive)
GI50 [43]: > 100 µM (inactive)
GI50 [44]: > 100 µM (inactive)
GI50 [45]: > 100 µM (inactive)
GI50 [46]: > 100 µM (inactive)
GI50 [47]: > 100 µM (inactive)
GI50 [48]: > 100 µM (inactive)
GI50 [49]: > 100 µM (inactive)

O=c1cc(-c2ccccc2)oc2cc(Oc3nnnn3-c3ccccc3)ccc12
GI50 [1]: 40.4 µM (inactive)
GI50 [2]: 36.5 µM (inactive)
GI50 [50]: 33.4 µM (inactive)
GI50 [3]: 51.4 µM (inactive)
GI50 [4]: 9.42 µM (inactive)
GI50 [5]: > 100 µM (inactive)
GI50 [6]: 41.5 µM (inactive)
GI50 [7]: 19 µM (inactive)
GI50 [8]: 11.7 µM (inactive)
GI50 [51]: 55.6 µM (inactive)
GI50 [52]: 36.1 µM (inactive)
GI50 [10]: 34.8 µM (inactive)
GI50 [11]: 15 µM (inactive)
GI50 [53]: 57.7 µM (inactive)
GI50 [12]: 15.5 µM (inactive)
GI50 [13]: 38.7 µM (inactive)
GI50 [14]: 32.4 µM (inactive)
GI50 [15]: 42.6 µM (inactive)
GI50 [16]: 19.1 µM (inactive)
GI50 [17]: 32.5 µM (inactive)
GI50 [18]: 19.9 µM (inactive)
GI50 [20]: 93.8 µM (inactive)
GI50 [21]: 29 µM
GI50 [22]: > 100 µM (inactive)
GI50 [23]: 16.3 µM (inactive)
GI50 [24]: 30.5 µM (inactive)
GI50 [54]: 69.2 µM (inactive)
GI50 [25]: 4.18 µM (inactive)
GI50 [26]: 25.4 µM (inactive)
GI50 [27]: 22.4 µM (inactive)
GI50 [55]: 38.9 µM (inactive)
GI50 [28]: 28.3 µM (inactive)
GI50 [29]: 28.4 µM (inactive)
GI50 [30]: 46.2 µM (inactive)
GI50 [31]: 35.8 µM (inactive)
GI50 [32]: 39.4 µM (inactive)
GI50 [33]: 32.5 µM (inactive)
GI50 [56]: 44.9 µM (inactive)
GI50 [35]: 98.4 µM (inactive)
GI50 [36]: 21.4 µM (inactive)
GI50 [37]: 55.8 µM (inactive)
GI50 [38]: 34.6 µM (inactive)
GI50 [39]: 36 µM (inactive)
GI50 [57]: 51.6 µM (inactive)
GI50 [40]: 35.1 µM (inactive)
GI50 [41]: 15.1 µM (inactive)
GI50 [42]: 79.1 µM (inactive)
GI50 [43]: 32.6 µM (inactive)
GI50 [58]: 2.37 µM (inactive)
GI50 [44]: 6.14 µM (inactive)
GI50 [45]: 67 µM (inactive)
GI50 [46]: > 100 µM (inactive)
GI50 [47]: 31.6 µM (inactive)
GI50 [48]: 60.8 µM (inactive)
GI50 [49]: 36.8 µM (inactive)

S=C(S)NCC1CCC(CNC(=S)S)CC1 (stereo not given)
GI50 [1]: 19.7 µM (inactive)
GI50 [2]: 82.8 µM (inactive)
GI50 [50]: 22.8 µM (inactive)
GI50 [3]: 9.18 µM (inactive)
GI50 [5]: 47.5 µM (inactive)
GI50 [6]: 26.7 µM (inactive)
GI50 [7]: 30.9 µM (inactive)
GI50 [8]: 16.3 µM (inactive)
GI50 [9]: > 100 µM (inactive)
GI50 [51]: 16.5 µM (inactive)
GI50 [52]: 12.7 µM (inactive)
GI50 [10]: 20.9 µM (inactive)
GI50 [11]: 39.2 µM (inactive)
GI50 [53]: 17.7 µM (inactive)
GI50 [12]: 23.3 µM (inactive)
GI50 [13]: 4.63 µM (inactive)
GI50 [14]: 29.2 µM (inactive)
GI50 [15]: 29.2 µM (inactive)
GI50 [16]: 20.1 µM (inactive)
GI50 [17]: 26.3 µM (inactive)
GI50 [18]: 42.8 µM (inactive)
GI50 [19]: 34.9 µM (inactive)
GI50 [20]: 20.7 µM (inactive)
GI50 [21]: 23.6 µM
GI50 [22]: 34.4 µM (inactive)
GI50 [23]: 17.9 µM (inactive)
GI50 [24]: 48.9 µM (inactive)
GI50 [54]: 10.7 µM (inactive)
GI50 [25]: 20.7 µM (inactive)
GI50 [26]: > 100 µM (inactive)
GI50 [27]: 38.5 µM (inactive)
GI50 [55]: 18.8 µM (inactive)
GI50 [28]: > 100 µM (inactive)
GI50 [29]: 23.3 µM (inactive)
GI50 [30]: > 100 µM (inactive)
GI50 [31]: 62.1 µM (inactive)
GI50 [32]: 17.8 µM (inactive)
GI50 [33]: 26 µM (inactive)
GI50 [34]: 20 µM (inactive)
GI50 [59]: 67.8 µM (inactive)
GI50 [35]: 18.3 µM (inactive)
GI50 [36]: 44.1 µM (inactive)
GI50 [37]: > 100 µM (inactive)
GI50 [38]: 19.7 µM (inactive)
GI50 [39]: > 100 µM (inactive)
GI50 [57]: 44.5 µM (inactive)
GI50 [40]: 42 µM (inactive)
GI50 [41]: 87.9 µM (inactive)
GI50 [42]: 56.2 µM (inactive)
GI50 [43]: 14.2 µM (inactive)
GI50 [44]: 16.9 µM (inactive)
GI50 [45]: 22.6 µM (inactive)
GI50 [46]: 20.4 µM (inactive)
GI50 [47]: > 100 µM (inactive)
GI50 [48]: 20.6 µM (inactive)
GI50 [49]: 70.5 µM (inactive)
